Literature values, collected in US6465462B1, “Substituted triazolo pyridazine derivatives as inverse agonists of the GABAAα5 receptor subtype” (Merck Sharp & Dohme Ltd., priority 1996, dated 2002).

What was measured:
[1] = reported by McNamara and Skelton, Psychobiology 21:101-108
[2] = in vivo

COC(=O)c1cc2c(cn1)[nH]c1ccccc12 [β-CCM]
spatial learning in the Morris watermaze [1]: enhanced spatial learning
proconvulsant effect [2]: proconvulsant
